# Structures can show the parent of a compound that is named as a salt.
# Test system: not given
# Test: not given
# Conditions: not given
row,Structure (SMILES),melting point
1,"CC1CCCCN1CCCNC(=O)C(c1ccccc1)C1CCCC1 (centres unmarked) (as salt: HCl) [Compound 14, 2-cyclopentyl-N-[3-(2-methyl-1-piperidinyl)propyl]-2-phenylacetamide]",69 °C
2,"O=C(C(c1ccccc1)C1CCCC1)N1CCC(N2CCOCC2)CC1 (centres unmarked) (as salt: Na) [Compound 36, 4-{1-[cyclopentyl(phenyl)acetyl]-4-piperidinyl}morpholine]",111.8 °C
3,"CCN(CC)CCNC(=O)C(c1ccccc1)C1CCCC1 (single isomer, unassigned; (+)) (as salt: HCl) [Compound 50, (+)2-cyclopentyl-N-[2-(diethylamino)ethyl]-2-phenylacetamide]",144 °C
4,"O=C(NCCN1CCN(C(=O)c2c(F)cccc2Cl)CC1)[C@@H]1C[C@H]1c1ccccc1 (relative stereo) (as salt: HCl) [Compound 9, Trans-N-{2-[4-(2-chloro-6-fluorobenzoyl)-1-piperazinyl]ethyl}-2-phenylcyclopropanecarboxamide]",122 °C
5,"O=C(NCCCN1CCN(Cc2c(F)cccc2Cl)CC1)[C@@H]1C[C@H]1c1ccccc1 (relative stereo) (as salt: HCl) [Compound 5, Trans-N-{3-[4-(2-chloro-6-fluorobenzyl)-1-piperazinyl]propyl}-2-phenylcyclopropanecarboxamide]",145 °C
6,"O=C(NCCCN1CCOCC1)C(c1ccccc1)C1CCCC1 (centres unmarked) (as salt: HCl) [Compound 32, 2-cyclopentyl-N-[3-(4-morpholinyl)propyl]-2-phenylacetamide]",145 °C
7,"CCN(CC)CCNC(=O)C(c1ccc(F)cc1)C1CCCC1 (centres unmarked) (as salt: HCl) [Compound 21, 2-cyclopentyl-N-[2-(diethylamino)ethyl]-2-(4-fluorophenyl)acetamide]",45 °C
8,"CCN(CC)C1CCN(C(=O)C(c2ccccc2)C2CCCC2)CC1 (centres unmarked) (as salt: HCl) [Compound 37, N-{1-[cyclopentyl(phenyl)acetyl]-4-piperidinyl}-N,N-diethylamine]",79 °C
9,"O=C(C(c1ccccc1)C1CCCC1)N1CCC(N2CCCCC2)CC1 (centres unmarked) (as salt: HCl) [Compound 24, 1′-[cyclopentyl(phenyl)acetyl]-1,4′-bipiperidine]",112 °C
10,"CCNCCNC(=O)C(c1ccccc1)C1CCCC1 (centres unmarked) (as salt: HCl) [Compound 18, 2-cyclopentyl-N-[2-(ethylamino)ethyl]-2-phenylacetamide]",131 °C
11,"CCN(CC)CCNC(=O)C(c1ccccc1)C1CCCC1 (centres unmarked) (as salt: HCl) [Compound 15, 2-cyclopentyl-N-[2-(diethylamino)ethyl]-2-phenylacetamide]",129 °C
12,"CN(C)[C@H]1CCN(C(=O)C(c2ccccc2)C2CCCC2)C1 (stereo partly drawn) (as salt: Na) [Compound 42, (3S)-1-[cyclopentyl(phenyl)acetyl]-N,N-dimethyl-3-pyrrolidinamine]",68 °C
13,"NCCNC(=O)C(c1ccccc1)C1CCCC1 (centres unmarked) (as salt: HCl) [Compound 22, N-(2-aminoethyl)-2-cyclopentyl-2-phenylacetamide]",290 °C
14,"CCN(CC)CCNC(=O)C(c1ccccc1)C1CCCC1 (single isomer, unassigned; (-)) (as salt: HCl) [Compound 51, (−)2-cyclopentyl-N-[2-(diethylamino)ethyl]-2-phenylacetamide]",146 °C
15,"O=C(NCCN1CCN(Cc2ccc(Cl)c(Cl)c2)CC1)[C@@H]1C[C@H]1c1ccccc1 (relative stereo) (as salt: HCl) [Compound 10, Trans-N-{2-[4-(3,4-dichlorobenzyl)-1-piperazinyl]ethyl}-2-phenylcyclopropanecarboxamide]",145 °C
16,"O=C(NCCCN1CCN(Cc2c(F)cccc2Cl)CC1)C(c1ccccc1)C1CCCC1 (centres unmarked) (as salt: HCl) [Compound 34, N-{3-[4-(2-chloro-6-fluorobenzyl)-1-piperazinyl]propyl}-2-cyclopentyl-2-phenylacetamide]",148 °C
17,"O=C(C(c1ccc(Cl)cc1)C1CCCC1)N1CCC(N2CCCCC2)CC1 (centres unmarked) (as salt: HCl) [Compound 27, 1′-[(4-chlorophenyl)(cyclopentyl)acetyl]-1,4′-bipiperidine]",105 °C
18,"CC(C)N1CCN(C2CCN(C(=O)C(c3ccccc3)C3CCCC3)CC2)CC1 (centres unmarked) (as salt: Na) [Compound 38, 1-{1-[cyclopentyl(phenyl)acetyl]-4-piperidinyl}-4-isopropylpiperazine]",109.6 °C
19,"O=C(C(c1ccccc1)C1CCCC1)N1CCC(N2CCC(O)CC2)CC1 (centres unmarked) (as salt: HCl) [Compound 41, 1′-[cyclopentyl(phenyl)acetyl]-1,4′-bipiperidin-4-ol]",90 °C
20,"CCOC(=O)C1CCN(C2CCN(C(=O)C(c3ccccc3)C3CCCC3)CC2)CC1 (centres unmarked) (as salt: HCl) [Compound 40, ethyl 1′-[cyclopentyl(phenyl)acetyl]-1,4′-bipiperidine-4-carboxylate]",88 °C
21,"O=C(C(c1ccc(Cl)c(Cl)c1)C1CCCC1)N1CCC(N2CCCCC2)CC1 (centres unmarked) (as salt: HCl) [Compound 25, 1′-[cyclopentyl(3,4-dichlorophenyl)acetyl]-1,4′-bipiperidine]",230 °C
22,"O=C(NCCN1CCN(Cc2ccccc2)CC1)[C@@H]1C[C@H]1c1ccccc1 (relative stereo) (as salt: HCl) [Compound 7, Trans-N-[2-(4-benzyl-1-piperazinyl)ethyl]-2-phenylcyclopropanecarboxamide]",195 °C

# Test system: MK801-induced short term/working memory deficits
# Test: spontaneous alternation task (Y-shaped maze), short term/working memory
# Assay type: in vivo
# Conditions: male mice, 8 minutes in maze; normal mice 65-70 %
# Description: The effect of claimed compounds has been evaluated in an animal model of short term/working memory, namely the spontaneous alternation task. The test system consisted of a symmetrical Y-shaped maze. […] Claimed compounds were able to prevent this deficit after systemic administration.
row,Structure (SMILES),% spontaneous alternation
1,C[C@]12N[C@H](Cc3ccccc31)c1ccccc12 [MK801],decreased percentage of spontaneous alternation

# Source: US20080153917A1, “Sigma Receptor Ligands” (UCB PHARMA, S.A., priority 2004, published 2008)
